Results from US20180362456A1, “NEW COMPOUNDS WITH ANTIOXIDANT AND ANTIAGING ACTIVITY” (EMS S/A, priority 2015, published 2018).

Experiments:
[1] = Neutral Red Uptake cytotoxicity test; type: cell-based; conditions: mouse, Balb3T3 cells
Experimental: (§1) The citotoxicity of compounds described in examples 1 and 2 was tested with the test Neutral Red Uptake to determine the IC50 values. To better define the cytotoxic potential also the lactate dehydrogenase (LDH) release was tested to verify the action on cell membrane permeability. Test were performed according to DB-ALM Protocol n L39Balb3T3 Red Uptake cytotoxicity and ISO 10993-5:2009.

free radicals [2] = test: Antioxidant activity, DCA fluorimetric probe, UVA treatments; type: cell-based
Experimental: (§2) The antioxidant power of compounds described in examples 1 and 2 was tested in two different tests, one for the scavenger activity and one for the antioxidant activity. The method is based on the fluorimetric probe 2′,7′-dichlorofluorescein diacetate (DCA) that becomes fluorescent only when it is oxidized by free radicals.

Balb3T3 [3] = test: Lactate dehydrogenase (LDH) release, cell membrane permeability; type: cell-based; set-up: activity on cell membrane: dose or concentration left out as unconfirmed; conditions: for LDH release, % of total enzyme contained in the cells: 14 hours exposition
Experimental: as §1

[4] = In vitro skin permeation, static Franz diffusion cells (OECD 428); type: in vitro ADME; conditions: 1% solution, 5 mg/cm2 on human skin, 24 hours, unocclusive
Description: The in vitro skin permeation experiments were developed and validated according to the Organization for Economic Cooperation and Development adopted guideline 428 (OECD guideline for the testing of chemicals. Skin absorption: in vitro method. Guideline 428 (Paris, April 2004, updated January 2011)). Briefly, static Franz diffusion cells were set up with human skin samples according with OECD and SCSS guidelines. A simple formulation containing 1% of compound of example 1 in solution was applied topically on human skin samples (5 mg/cm2) for 24 hours in an unocclusive conditions. At the end of the exposure time the Franz diffusion cells were dismantled and the distribution of the compound was measured on the skin surface, in the stratum corneum and in the rector fluid. An extraction method was developed and the day after the extraction process, all the samples were filtered through 0.22 μm membrane filter into HPLC vials. The samples of compounds of example 1, together with known concentration standards were assayed by HPLC-UV (Waters, USA). The average amount measured in the dermis was 2% of applied dose and in the receptor fluid was 3% of the applied dose. Therefore, the calculated average dermal absorption for compound 1 was 5%.

free radicals [5] = test: Scavenger activity, DCA fluorimetric probe, UVA treatments; type: cell-based
Experimental: as §2

Balb3T3 [6] = test: Neutral Red Uptake cytotoxicity test; type: cell-based
Experimental: as §1

C=CCSCC(N)C(=O)Oc1ccc(/C=C/c2cc(OC(=O)C(N)CSCC=C)cc(OC(=O)C(N)CSCC=C)c2)cc1.Cl.Cl.Cl (stereo not drawn) [Example 1, (E)-1,1′-((5-(4-((3-(allylthio)-2-ammoniopropanoyl)oxy)styryl)-1,3-phenylene)bis(oxy))bis(3-(allylthio)-1-oxopropan-2-aminium) Chloride]
IC50 [1]: 113 µM | inhibition of free radical formation (antioxidant efficacy) (free radicals [2]; 0.1 mM effective dose, after 5 treatments UVA): more than 50% | activity on cell membrane (Balb3T3 [3]): not highlighted a specific activity on cell membrane | LDH release, % of total enzyme contained in the cells (Balb3T3 [3]; 0.2 mM): 13.0% | LDH release, % of total enzyme contained in the cells (Balb3T3 [3]; 0.5 mM): 13.2% | average amount measured in the dermis [4]: 2 % of applied dose | average amount measured in the receptor fluid [4]: 3 % of the applied dose | calculated average dermal absorption [4]: 5% | reduction of the formation of free radicals (scavenger activity), on average (free radicals [5]; 0.004 mM, after 5 treatments with UVA): 41%

C=CCSCC(NC(=O)C1CCC(=O)N1)C(=O)OC [Example 2, L-Pyroglutamyl-(R)-3-Allylsulfanyl-2-amino-propionic Acid Methyl Ester]
IC50 [1]: > 3000 µM | overall biocompatibility (Balb3T3 [6]): very biocompatible | inhibition at 25 µM (free radicals [2]; 0.025 mM, read-out: inhibition of free radical formation (antioxidant activity)): 25.6% | activity on cell membrane (Balb3T3 [3]): some slight activity on cell membrane | LDH release, % of total enzyme contained in the cells (Balb3T3 [3]; 1 mM): 12.3% | reduction of free radical formation (scavenger action) (free radicals [5]; after first UVA treatment): 23.5%
